Measured values as given in patent publication US11845748B2, “Bicyclic pyridine N-oxide derivatives useful as a factor XIa inhibitors” (Janssen Pharmaceutica NV, priority 2021, dated 2023).

Columns and labels:
human plasma kallikrein = human plasma kallikrein (Homo sapiens, UniProt P03952); experiment: Kallikrein inhibition assay utilizing a quenched AMC peptide substrate (FLINT); assay type: biochemical; conditions: kinetic reads at 5 min intervals over 30 min; 30 min preincubation; Z-Gly-Pro-Arg-AMC substrate; read-out: Kallikrein (KIN) IC50
Procedure: Biological Example 2: Kallikrein Inhibition Assay Utilizing a Quenched AMC Peptide Substrate
A fluorescence intensity (FLINT) based assay was used to monitor inhibition of human plasma kallikrein. The peptide substrate, Z-Gly-Pro-Arg-AMC (Purchased from Bachem; Catalog #I-1150) was chosen based on its relatively low KM for kallikrein which enables running the assay at lower substrate concentrations to control background fluorescence. The kinetic parameters for this substrate were determined by fitting titration data to the Michaelis-Menten equation yielding a KM=40 μM, kcat=0.76 s^−1, and kcat/KM=18932 M^−1s^−1.
The Kallikrein FLINT assay was used with the following Z-Gly-Pro-Arg-AMC assay buffer: 50 mM Tris, pH 7.5, 100 mM NaCl, 5 mM CaCl2, 0.1 mg/mL BSA, 0.03% CHAPS. Assay buffer was prepared by mixing all ingredients fresh. 2× Z-Gly-Pro-Arg-AMC peptide substrate was prepared by diluting 10 mM stock into 1× assay buffer for a 100 μM working concentration (50 μM final concentration). The 2× kallikrein stock solution was prepared by diluting 14.76 μM stock in 1× assay buffer for a 4 nM working stock solution (2 nM final concentration).
Test compound(s) were run in an 11-point, 3-fold serial dilution with a final top compound concentration of 1 μM. Final DMSO in assay was 2%. Plasma kallikrein was pre-incubated for 30-minute with compound and then 50 μM substrate was added to initiate the reaction. The assay was run with kinetic (KIN) reads at 5 min intervals over 30 minutes. The time course was linear using 2 nM kallikrein greater than 30 minutes. More specifically, the assay was run as follows: • 100 nL of 0.1 mM test compound was dispensed into black 384-well non-binding Greiner BioOne 784900 plate for 1 μM final concentration; • 5 μL of 1× assay buffer was dispensed to columns 24 (low control) and 5 μL 2× human kallikrein enzyme solution was dispensed to columns 1-23 (column 23 high control); • the plate was centrifuged with a “cover” plate at 500 rpm for 1 min the plate was pre-incubated for 30 minutes at room temperature with plate covered; • 5 μL of 2× Z-Gly-Pro-Arg-AMC peptide substrate was dispensed into the entire plate, columns 1-24; • the plate was centrifuged with a “cover” plate at 500 rpm for 1 min; • the plate was read monitoring fluorescence intensity on the BMG PHERAStar at room temperature, using fluorescence module 340 nm/440 nm.
Percent inhibition (IC50) curves were generated per compound tested, and data was analyzed using a 4-parameter logistic fit using GeneData Screener. The relative fluorescence unit (RFU) values were normalized to percent inhibition using the following equation: % inhibition=((HC−LC)−(compound−LC)/(HC−LC))*100
where LC—low control=mean signal of […] 100% inhibition of human kallikrein enzyme; HC—high control=mean signal of […]+Z-Gly-Pro-Arg-AMC peptide substrate with DMSO only.
(§1) An 11-point dose response curve for the test compound(s) was generated using GENDATA to determine IC50 value based on the following equation: Y=Bottom+(Top−Bottom)/(1+10^((log IC50−X)*HillSlope))
(§2) where Y is the % inhibition in the presence of X inhibitor concentration, Top=high control=mean signal of human kallikrein enzyme+Z-Gly-Pro-Arg-AMC peptide substrate with DMSO only; Bottom=low control−mean signal of no human kallikrein enzyme or 100% inhibition of human kallikrein enzyme; HillSlope—Hill coefficient; and IC50=concentration of compound with 50% inhibition in relation to top/high control.
Representative compounds of formula (I) of the present invention were tested according to the procedure described in Biological Example 1 and Biological Example 2 above, with results as listed in Table 2, below. Results listed in the (ER) column were measured using endpoint reads where a single fluorescence reading was measured for each well at a 30 min timepoint. […]

Factor XIa = Factor XIa (Homo sapiens, UniProt P03951); experiment: Factor XIa inhibition assay utilizing a fluorophore-quencher pair peptide substrate (FLINT); assay type: biochemical; conditions: kinetic reads at 5 min intervals over 30 min; 30 min preincubation; 5Fam-KLTRAETV-K5Tamra substrate; read-out: FXIa (KIN) IC50
Excerpt: Biological Example 1: Factor XIa Inhibition Assay Utilizing a Fluorophore-Quencher Pair Peptide Substrate
A fluorescence intensity (FLINT) based assay was used to monitor inhibition of Factor XIa. The peptide substrate, 5Fam-KLTRAETV-K5Tamra (purchased from New England Peptide) was chosen based on the […]. Conversion of zymogen […]. The custom peptide used in this assay was based on the Arg146 cleavage site of FXI. The peptide substrate was designed with a fluorophore-quencher pair, where the fluorescence is quenched until FXIa cleaves the 8-mer peptide after the Arg residue. The substrate KM was fit to a substrate inhibition model whereby kcat=0.86 s^−1, KM=12.4 μM, Ki=61.6 μM with an enzymatic efficiency, and kcat/KM=69523 M^−1s^−1.
The Factor XIa FLINT assay was used with the following 5Fam-KLTRAETV-K5Tamra assay buffer: 50 mM Tris, pH 7.5, 100 mM NaCl, 5 mM CaCl2, 0.1 mg/mL BSA, 0.03% CHAPS. Assay buffer was prepared by mixing all ingredients fresh. 5Fam-KLTRAETV-K5Tamra peptide substrate was first prepared at 10 mM in 100% DMSO, then diluted to 3 mM in 100% DMSO. Assay buffer was then added directly to the 3 mM stock of substrate to prepare the 30 μM 2× working concentration (15 μM final concentration). The 2× Factor XIa stock solution was prepared by diluting 6.562 μM stock in 1× assay buffer for a 200 pM working stock solution (100 pM final concentration).
Test compound(s) were run in an 11-point, 3-fold serial dilution with a final top compound concentration of 100 nM. Final DMSO in assay was 2%. FXIa was preincubated with compound for 30-minutes and then substrate was added to initiate the reaction. The assay was run with either end point (EP) reads at 30 min or kinetic (KIN) reads at 5 min intervals over 30 minutes. The time course was linear using 100 μM FXIa greater than 30 minutes. More specifically, the assay was run as follows: • 100 nL of 0.01 mM test compound was dispensed into black 384-well non-binding Greiner BioOne 784900 plate for 0.1 μM final concentration; • 5 μL of 1× assay buffer was dispensed to column 24 (low control) and 5 μL 2× Factor XIa solution was dispensed to columns 1-23 (column 23 high control); • the plate was centrifuged with a “cover” plate at 500 rpm for 1 min the plate was pre-incubated for 30 minutes at room temperature with plate covered; • 5 μL of 2× 5Fam-KLTRAETV-K5Tamra peptide substrate was dispensed into the entire plate, columns 1-24; • the plate was centrifuged with a “cover” plate at 500 rpm for 1 min; • the plate was read monitoring fluorescence intensity on the BMG PHERAStar at room temperature, using fluorescence module 485 nm/520 nm.
Percent inhibition (IC50) curves were generated per compound tested, and data was analyzed using a 4-parameter logistic fit using GeneData Screener. The relative fluorescence unit (RFU) values were normalized to percent inhibition using the following equation: % inhibition=((HC−LC)−(compound−LC)/(HC−LC))*100 where LC—low control=mean signal of no Factor XIa or 100% inhibition of Factor XIa; HC—high control=mean signal of Factor XIa+5Fam-KLTRAETV-K5Tamra peptide substrate with DMSO only.
as §1
as §2, with “Factor XIa+5Fam-KLTRAETV-K5Tamra” for “human kallikrein enzyme+Z-Gly-Pro-Arg-AMC”, “Factor XIa” for “human kallikrein enzyme”, “Factor XIa;” for “human kallikrein enzyme;”, “control. […]” for “control.”

Factor XIa, sequence (P03951 388-625 limits assumed): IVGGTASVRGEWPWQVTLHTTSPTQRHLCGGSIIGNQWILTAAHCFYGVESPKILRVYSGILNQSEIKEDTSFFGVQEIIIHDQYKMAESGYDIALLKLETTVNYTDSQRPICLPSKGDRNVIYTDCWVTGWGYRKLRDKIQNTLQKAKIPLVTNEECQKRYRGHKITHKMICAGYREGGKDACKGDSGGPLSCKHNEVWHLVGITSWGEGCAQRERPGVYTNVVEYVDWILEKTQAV
Factor XIa, sequence (P03951 19-387 partner limits assumed): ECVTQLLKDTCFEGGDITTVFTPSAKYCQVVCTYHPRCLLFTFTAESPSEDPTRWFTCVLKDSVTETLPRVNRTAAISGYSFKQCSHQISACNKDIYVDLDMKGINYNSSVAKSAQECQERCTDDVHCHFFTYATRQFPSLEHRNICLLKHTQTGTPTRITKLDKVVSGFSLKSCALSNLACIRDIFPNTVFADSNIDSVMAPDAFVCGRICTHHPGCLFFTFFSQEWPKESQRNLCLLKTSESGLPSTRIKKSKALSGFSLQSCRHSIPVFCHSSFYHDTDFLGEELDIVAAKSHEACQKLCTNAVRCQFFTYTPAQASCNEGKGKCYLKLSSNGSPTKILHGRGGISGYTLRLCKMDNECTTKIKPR
human plasma kallikrein, sequence (P03952 391-638 limits assumed): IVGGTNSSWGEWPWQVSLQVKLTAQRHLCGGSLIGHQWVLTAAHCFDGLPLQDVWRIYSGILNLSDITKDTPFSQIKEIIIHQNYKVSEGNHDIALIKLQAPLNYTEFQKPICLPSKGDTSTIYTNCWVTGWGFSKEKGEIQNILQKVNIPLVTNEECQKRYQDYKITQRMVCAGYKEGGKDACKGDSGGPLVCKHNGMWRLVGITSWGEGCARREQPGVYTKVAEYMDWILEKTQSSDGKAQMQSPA
human plasma kallikrein, sequence (P03952 20-390 partner limits assumed): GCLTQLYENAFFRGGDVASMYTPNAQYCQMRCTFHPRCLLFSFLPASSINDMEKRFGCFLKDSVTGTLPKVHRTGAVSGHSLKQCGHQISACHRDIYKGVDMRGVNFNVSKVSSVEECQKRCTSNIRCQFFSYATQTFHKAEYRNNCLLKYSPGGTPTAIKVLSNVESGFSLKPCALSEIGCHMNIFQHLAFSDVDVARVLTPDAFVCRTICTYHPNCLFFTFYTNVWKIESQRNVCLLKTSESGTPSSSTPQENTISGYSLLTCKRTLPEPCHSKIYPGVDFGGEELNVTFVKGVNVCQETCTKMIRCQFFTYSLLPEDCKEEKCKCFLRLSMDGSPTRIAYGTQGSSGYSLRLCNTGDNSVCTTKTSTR

IC50 (human plasma kallikrein) [nM] | IC50 (Factor XIa) [nM] | Structure (SMILES)
> 10000 | > 10000 | Nc1ccc(-c2cnn(C3CCCc4cc(-c5c(-n6cnnn6)ccc(Cl)c5F)c[n+]([O-])c43)c2)c(F)n1 (single isomer, unassigned) [ID No. 32, (S*)-8-(4-(6-Amino-2-fluoropyridin-3-yl)-1H-pyrazol-1-yl)-3-(3-chloro-2-fluoro-6-(1H-tetrazol-1-yl)phenyl)-5,6,7,8-tetrahydroquinoline 1-oxide]
67 | 37 | NC(=O)c1ccc(-c2cnn(C3CCc4cc(-c5c(-n6cc(C(F)(F)F)nn6)ccc(Cl)c5F)c[n+]([O-])c43)c2)cc1F (single isomer, unassigned) [ID No. 28, (S*)-7-(4-(4-Carbamoyl-3-fluorophenyl)-1H-pyrazol-1-yl)-3-(3-chloro-2-fluoro-6-(4-(trifluoromethyl)-1H-1,2,3-triazol-1-yl)phenyl)-6,7-dihydro-5H-cyclopenta[b]pyridine 1-oxide]
240 | > 100 | NC(=O)c1ccc(-c2cnn(C3CCc4cc(-c5c(-n6cc(C(F)(F)F)nn6)ccc(Cl)c5F)c[n+]([O-])c43)c2)cc1F (single isomer, unassigned) [ID No. 27, (R*)7-(4-(4-Carbamoyl-3-fluorophenyl)-1H-pyrazol-1-yl)-3-(3-chloro-2-fluoro-6-(4-(trifluoromethyl)-1H-1,2,3-triazol-1-yl)phenyl)-6,7-dihydro-5H-cyclopenta[b]pyridine 1-oxide]
8480 | 765 | CC(=O)Nc1ccc(-c2cnn(C3CCCc4cc(-c5c(-n6cnnn6)ccc(Cl)c5F)c[n+]([O-])c43)c2)c(F)n1 (racemic) [ID No. 29, 8-(4-(6-Acetamido-2-fluoropyridin-3-yl)-1H-pyrazol-1-yl)-3-(3-chloro-2-fluoro-6-(1H-tetrazol-1-yl)phenyl)-5,6,7,8-tetrahydroquinoline 1-oxide]

Second part, the compound before the results:

Structure (SMILES) | IC50 (human plasma kallikrein) [nM] | IC50 (Factor XIa) [nM]
Nc1ccc(-c2cnn(C3CCc4cc(-c5c(-n6cnnn6)ccc(Cl)c5F)c[n+]([O-])c43)c2)c(Cl)n1 (single isomer, unassigned) [ID No. 22, (S*)-7-(4-(6-Amino-2-chloropyridin-3-yl)-1H-pyrazol-1-yl)-3-(3-chloro-2-fluoro-6-(1H-tetrazol-1-yl)phenyl)-6,7-dihydro-5H-cyclopenta[b]pyridine 1-oxide] | 176 | 3
O=C(Nc1ccc(-c2cnn(C3CCc4cc(-c5c(-n6cnnn6)ccc(Cl)c5F)c[n+]([O-])c43)c2)cc1)C1CC1 (racemic) [ID No. 16, 3-(3-Chloro-2-fluoro-6-(1H-tetrazol-1-yl)phenyl)-7-(4-(4-(cyclopropanecarboxamido)phenyl)-1H-pyrazol-1-yl)-6,7-dihydro-5H-cyclopenta[b]pyridine 1-oxide] | 316 | 25
Cc1cc(-c2cnn(C3CCc4cc(-c5c(-n6cnnn6)ccc(Cl)c5F)c[n+]([O-])c43)c2)ccn1 (racemic) [ID No. 23, 3-(3-Chloro-2-fluoro-6-(1H-tetrazol-1-yl)phenyl)-7-(4-(2-methylpyridin-4-yl)-1H-pyrazol-1-yl)-6,7-dihydro-5H-cyclopenta[b]pyridine 1-oxide] | 393 | 32
Cn1nncc1-c1cnn([C@@H]2CCc3cc(-c4c(-n5cnnn5)ccc(Cl)c4F)c[n+]([O-])c32)c1 [ID No. 26, (R)-3-(3-Chloro-2-fluoro-6-(1H-tetrazol-1-yl)phenyl)-7-(4-(1-methyl-1H-1,2,3-triazol-5-yl)-1H-pyrazol-1-yl)-6,7-dihydro-5H-cyclopenta[b]pyridine 1-oxide] | 4040 | 42
Cn1ncc(-c2cnn(C3CCc4cc(-c5c(-n6cnnn6)ccc(Cl)c5F)c[n+]([O-])c43)c2)cc1=O (racemic) [ID No. 19, 3-(3-Chloro-2-fluoro-6-(1H-tetrazol-1-yl)phenyl)-7-(4-(1-methyl-6-oxo-1,6-dihydropyridazin-4-yl)-1H-pyrazol-1-yl)-6,7-dihydro-5H-cyclopenta[b]pyridine 1-oxide] | 6360 | 1170
COC(=O)Nc1ccc(-c2cn(C3CCc4cc(-c5c(-n6cnnn6)ccc(Cl)c5F)c[n+]([O-])c43)cn2)cc1 (stereo not shown) [ID No. 2, 3-(3-Chloro-2-fluoro-6-(1H-tetrazol-1-yl)phenyl)-7-(4-(4-((methoxycarbonyl)amino)phenyl)-1H-imidazol-1-yl)-6,7-dihydro-5H-cyclopenta[b]pyridine 1-oxide] | 461 | 24
Cn1c(-c2cnn(C3CCc4cc(-c5c(-n6cnnn6)ccc(Cl)c5F)c[n+]([O-])c43)c2)cccc1=O (racemic) [ID No. 20, 3-(3-Chloro-2-fluoro-6-(1H-tetrazol-1-yl)phenyl)-7-(4-(1-methyl-6-oxo-1,6-dihydropyridin-2-yl)-1H-pyrazol-1-yl)-6,7-dihydro-5H-cyclopenta[b]pyridine 1-oxide] | > 10000 | 3110
